In publication PMC5441103, “Antiviral activity of phenanthrenes from the medicinal plant Bletilla striata against influenza A virus” (BMC Complementary and Alternative Medicine, 2017):
Where “and” joins values, the source holds several entries; their conditions need not be identical. Identical values can stand only once. Like-named read-outs stand apart in the source and are kept apart here.

What was measured:
[1] = system: influenza A/Sydney/5/97 (H3N2)
[2] = system: influenza viral matrix protein mRNA; format: cell-based, influenza virus
[3] = system: influenza virus A/Sydney/5/97 (H3N2); format: in vivo; settings: for -log2 HA titer (mean ± SD): 9-day-old embryonated hen eggs, 100 EID50, 34 °C 48 h, allantoic fluid
neuraminidase (NA) = neuraminidase (NA) (Influenza A virus, UniProt Q80DL0); settings: for IC50: read-out: NA inhibitory activity IC50
Description: The neuraminidase inhibition assay was used to evaluate the effects of each compound on the neuraminidase activity of the influenza virus, according to the instructions of the Neuraminidase Inhibitors Screen Kit (Beyotime, China). Inhibition = [(C− S) / (C − C 0)] × 100%, where C is the fluorescence of the control (enzyme, buffer, and substrate) after 30 min of incubation, and C 0 is the fluorescence of the control (buffer and substrate). S is the fluorescence of the tested samples (enzyme, sample solution, and substrate) after incubation. Standard curves were made by plotting the percentage of fluorescence inhibition relative to the activity of virus controls against the log2 of concentrations. In addition, 10 μg/mL oseltamivir phosphate was used as the positive control. Then, 10 μL of NA in 70 μL of reaction buffer was mixed with equal volumes of twofold dilutions of the compounds. After a 2-min incubation at 37 °C, equal volumes (10 μL) of the substrate solution [2-(4-methylumbelliferyl)-α-D-N-acetylneuraminic acid sodium (4-MU-NANA)] were added, and the mixtures were further incubated for 30 min at 37 °C. The fluorescence intensity was measured using a fluorescence plate reader at an excitation wavelength of 322 nm and an emission wavelength of 450 nm. The 50% inhibitory concentration (IC50) was calculated by regression analysis with r ^2 ≥ 0.9, representing the mean values of three independent experiments [13, 29].

MDCK cells = assay: Cytotoxicity to MDCK cells (MTS-based assay); format: cell-based, canine; settings: 48 h, read-out: CC50 (50% cytotoxic concentration)
Description: (§1) An MTS-based assay was performed to evaluate the cytotoxic effects of the test compounds on MDCK cells. Approximately 5 × 10^4 cells/well were seeded in 96-well microplates in MEM with 10% FBS at 37 °C in a humidified 5% CO2 incubator. When the monolayer was confluent, the cells were washed twice with PBS and then treated with compounds diluted in serum-free MEM. After incubation at 37 °C for 48 h, 20 μL of MTS was added to each well, and the cells were incubated for 2 h. The absorbance at 490 nm was determined using a microplate reader. The cell viability was calculated using the following formula: cell viability (%) = (drug treatment – background)/(control – background) × 100%. The half-maximal cytotoxic concentration (CC50) of the compounds was defined as the concentration that reduced the A490 of compound-treated cells to 50% of that of untreated cells.

[4] = system: influenza A/Sydney/5/97 (H3N2); assay: microbe, parasite or virus in culture; settings: H3N2, MDCK
[5] = system: influenza A/Sydney/5/97 (H3N2); assay: in vitro; settings: dog, MDCK cells
[6] = Cytotoxicity to MDCK cells (MTS-based assay); format: cell-based, canine; settings: dog, read-out: CC50 (50% cytotoxic concentration)
Description: as §1

hemagglutinin (HA) = assay: Hemagglutination inhibition assay (guinea pig RBC); settings: 4 HAU virus, 1.5% guinea pig RBC
Description: The hemagglutination inhibition assay was used to study whether the compound could block the SA-containing receptors. The phenanthrenes from B. striata and oseltamivir phosphate were all tested Fresh guinea pig blood was collected at the Laboratory Animal Research Center of the Zhejiang Chinese Medical University, supplemented with 1.6% sodium citrate in sterile water. Then, red blood cells (RBC) were separated by centrifugation (800×g for 10 min at room temperature), washed three times with sterile PBS, and then suspended at a concentration of 1.5%. The least number of virus particles able to agglutinate the guinea pig RBC was determined in a serial virus dilution as four hemagglutination units (HAU). PBS instead of the compounds was used as the hemagglutinating positive control and no-virus RBC as the hemagglutinating negative control. Then, 50 μL of the compounds in serial twofold dilutions in PBS were mixed with 50 μL of 4 HAU influenza virus suspension, incubated for 1 h at 37 °C, mixed with an equal volume of 1.5% guinea pig RBC suspension for 1 h at room temperature, and then monitored for agglutination [10, 11].

[7] = read-out: Simultaneous treatment IC50
[8] = 72 h, read-out: Simultaneous treatment IC50
[9] = Post-treatment SI (selective index; CC50mean/IC50mean), post-treatment
[10] = Simultaneous treatment SI (selective index; CC50mean/IC50mean), simultaneous treatment

## 2,2′–dyhydroxyl-4,4′,7,7′-9′,10′-dihydro-1,6′-di-phenanthrene [Compound 11]
[1]; read-out: Post-treatment IC50
  IC50: 35.2 ± 3.7 µM
[1]; [7]
  IC50: 38.6 ± 2.9 µM
[2]
  Matrix protein mRNA transcription (normalized to GAPDH): stronger inhibitory effect
[3]; in vivo
  Inhibition (%): 0.00%

## COc1cc(O)cc2c1-c1ccc(O)cc1CC2 [Compound 1, 2,7-dyhydroxyl-4-methoxy-9,10-dihydro-phenanthrene]
[1]
  Post-treatment IC50: - (The results showed that antiviral effects against A/Sydney/5/97(H3N2) were less than 50% inhibition)
  Simultaneous treatment IC50: - (The results showed that antiviral effects against A/Sydney/5/97(H3N2) were less than 50% inhibition)
[2]
  Matrix protein mRNA transcription (normalized to GAPDH): stronger inhibitory effect
Neuraminidase (NA)
  IC50: 72.6 ± 6.5 µM
MDCK cells
  CC50: 201 ± 18.6 µM

## COc1ccc2c(ccc3c(-c4c(O)cc(OC)c5c4CCc4cc(O)ccc4-5)c(O)cc(OC)c32)c1 [Compound 2, 2,2,7′-trihydroxy-4,4′,7-trimethoxy-9′,10′-dihydro-1,1′-diphenanthrene]
[1]
  Post-treatment SI (selective index; CC50mean/IC50mean): 2.2
  Simultaneous treatment SI (selective index; CC50mean/IC50mean): 2.3
[1]; read-out: Post-treatment IC50
  IC50: 31.4 ± 2.1 µM
[1]; [7]
  IC50: 28.6 ± 4.3 µM
[2]
  Matrix protein mRNA transcription (normalized to GAPDH): stronger inhibitory effect
Neuraminidase (NA)
  NA inhibitory activity IC50: - (key: -: Inhibitory effect on the NA was less than 50%.)
MDCK cells
  CC50: 67.9 ± 13.1 µM

## COc1ccc2c(ccc3c(-c4c(O)c(OC)cc5c4CCc4cc(O)cc(OC)c4-5)c(O)cc(OC)c32)c1 [Compound 3, 2,2′,7′-trihydroxy-3′,4,5′,7-tetramethoxy-9′,10′-dihydro-1,1′-di-phenanthrene]
[1]
  Post-treatment SI (selective index; CC50mean/IC50mean): 2.2
  Simultaneous treatment SI (selective index; CC50mean/IC50mean): 2.5
[1]; read-out: Post-treatment IC50
  IC50: 22.6 ± 1.8 µM
[1]; [7]
  IC50: 20.4 ± 3.2 µM
[2]
  Matrix protein mRNA transcription (normalized to GAPDH): stronger inhibitory effect
Neuraminidase (NA)
  IC50: 16.8 ± 1.6 µM
MDCK cells
  CC50: 50.3 ± 6.2 µM

## COc1cc(O)c2c(ccc3c(OC)c(O)ccc32)c1-c1c(OC)cc(O)c2c1ccc1c(OC)c(O)ccc12 [Compound 4, 4,4′,7,7′-tetrahydroxy-2,2′,8,8′-tetramethoxy-1,1′-di-phenanthrene]
[1]
  Post-treatment SI (selective index; CC50mean/IC50mean): 4.3
  Simultaneous treatment SI (selective index; CC50mean/IC50mean): 5.5
[1]; read-out: Post-treatment IC50
  IC50: 18.4 ± 3.1 µM
[1]; [7]
  IC50: 14.6 ± 2.4 µM
[2]
  Matrix protein mRNA transcription (normalized to GAPDH): most efficient, even more powerful than oseltamivir
Neuraminidase (NA)
  IC50: 21.7 ± 2.9 µM
MDCK cells
  CC50: 80 ± 20.1 µM

## COc1cc(O)c2c(ccc3cc(O)ccc32)c1-c1c(OC)cc(O)c2c1ccc1c(OC)cccc12 [Compound 5, 4,4′,7′-trihydroxy-2,2′,8,-trimethoxy-1,1′-di-phenanthrene]
[1]
  Post-treatment IC50: - (The results showed that antiviral effects against A/Sydney/5/97(H3N2) were less than 50% inhibition)
  Simultaneous treatment IC50: - (The results showed that antiviral effects against A/Sydney/5/97(H3N2) were less than 50% inhibition)
Neuraminidase (NA)
  NA inhibitory activity IC50: - (key: -: Inhibitory effect on the NA was less than 50%.)
[3]; in vivo
  Inhibition (%): 0.00% and 6.90% and 3.45%
MDCK cells
  CC50: 96.8 ± 15.6 µM

## COc1cc(O)c2c(ccc3cc(O)ccc32)c1-c1c(OC)cc(O)c2c1ccc1cc(O)ccc12 [Compound 6, 4,4′,7,7′-tetrahydroxy-2,2′-dimethoxy-1,1′-di-phenanthrene]
[1]
  Post-treatment SI (selective index; CC50mean/IC50mean): 2.8
  Simultaneous treatment SI (selective index; CC50mean/IC50mean): 3.1
[1]; read-out: Post-treatment IC50
  IC50: 37.3 ± 3.2 µM
[1]; [7]
  IC50: 33.8 ± 2.7 µM
[2]
  Matrix protein mRNA transcription (normalized to GAPDH): stronger inhibitory effect
Neuraminidase (NA)
  IC50: 16.1 ± 2.6 µM
MDCK cells
  CC50: 106 ± 21.2 µM

## COc1ccc2c(ccc3c(-c4c(OC)cc(O)c5c4ccc4cc(O)ccc45)c(OC)cc(O)c32)c1 [Compound 7, 4,4′,7-trihydroxy-2,2′,7′-trimethoxy-1,1′-di-phenanthrene]
[1]
  Post-treatment SI (selective index; CC50mean/IC50mean): 4.1
  Simultaneous treatment SI (selective index; CC50mean/IC50mean): 4.5
[1]; read-out: Post-treatment IC50
  IC50: 31.2 ± 2.2 µM
[1]; [7]
  IC50: 28.5 ± 2.8 µM
[2]
  Matrix protein mRNA transcription (normalized to GAPDH): stronger inhibitory effect
Neuraminidase (NA)
  NA inhibitory activity IC50: - (key: -: Inhibitory effect on the NA was less than 50%.)
[3]; in vivo
  Inhibition (%): 0.00%
MDCK cells
  CC50: 130 ± 15.6 µM

## COc1cc(O)c2c(ccc3cc(O)ccc32)c1-c1c(OC)cc(O)c2c1ccc1c(OC)c(O)ccc12 [Compound 8, 4,4′,7,7′-tetrahydroxy-2,2′,8-trimethoxy-1,1′-di-phenanthrene]
[1]
  Post-treatment IC50: - (The results showed that antiviral effects against A/Sydney/5/97(H3N2) were less than 50% inhibition)
  Simultaneous treatment IC50: - (The results showed that antiviral effects against A/Sydney/5/97(H3N2) were less than 50% inhibition)
Neuraminidase (NA)
  NA inhibitory activity IC50: - (key: -: Inhibitory effect on the NA was less than 50%.)
MDCK cells
  CC50: 111 ± 17.3 µM

## COc1cc(O)c2c(c1)CCc1cccc(O)c1-2 [Compound 9, 4,5-dyhydroxyl-2-methoxy-9,10-dihydro-phenanthrene]
[1]
  Post-treatment IC50: - (The results showed that antiviral effects against A/Sydney/5/97(H3N2) were less than 50% inhibition)
  Simultaneous treatment IC50: - (The results showed that antiviral effects against A/Sydney/5/97(H3N2) were less than 50% inhibition)
[2]
  Matrix protein mRNA transcription (normalized to GAPDH): stronger inhibitory effect
Neuraminidase (NA)
  NA inhibitory activity IC50: - (key: -: Inhibitory effect on the NA was less than 50%.)
MDCK cells
  CC50: 160 ± 20.4 µM

## COc1ccc2c(ccc3cc(O)cc(OC)c32)c1 [Compound 10, 2-hydroxyl-4,7-dimethoxyphenanthrene]
[4]; [8]
  IC50: 43.3 ± 5.3 µM
[4]; read-out: Post-treatment IC50
  IC50: 42.3 ± 3.9 µM
[2]
  Matrix protein mRNA transcription (normalized to GAPDH): stronger inhibitory effect
[3]; 0.04 mmol/egg
  -log2 HA titer (mean ± SD): 6.00 ± 0.71
[3]; 0.04 mmol/egg, embryonated hen eggs, 100 EID50, 48 h
  Inhibition (%): 0.00%
[3]; 0.08 mmol/egg
  -log2 HA titer (mean ± SD): 3.20 ± 0.40
[3]; 0.08 mmol/egg, embryonated hen eggs, 100 EID50, 48 h
  Inhibition (%): 44.8% and 44.83%
[5]; [9]
  selectivity ratio at 72 h: 3.4
[5]; [10]
  selectivity ratio at 72 h: 3.3
[6]
  CC50 at 48 h: 142 ± 25 µM

## COc1cc(O)cc2ccc3cc(O)ccc3c12 [Compound 12, 2,7-dyhydroxyl-4-methoxyphenanthrene]
[1]
  Post-treatment IC50: - (The results showed that antiviral effects against A/Sydney/5/97(H3N2) were less than 50% inhibition)
  Simultaneous treatment IC50: - (The results showed that antiviral effects against A/Sydney/5/97(H3N2) were less than 50% inhibition)
Neuraminidase (NA)
  NA inhibitory activity IC50: - (key: -: Inhibitory effect on the NA was less than 50%.)
MDCK cells
  CC50: 116 ± 16.8 µM

## CCOC(=O)C1=C[C@@H](OC(CC)CC)[C@H](NC(C)=O)[C@@H](N)C1 [Oseltamivir, reference compound]
[4]; [8]
  IC50: 4.9 ± 0.9 µM
[4]; read-out: Post-treatment IC50
  IC50: 0.9 ± 0.2 µM
[3]; 0.01 mmol/egg
  -log2 HA titer (mean ± SD): 0.00 ± 0.00
[3]; 0.01 mmol/egg, embryonated hen eggs, 100 EID50, 48 h
  Inhibition (%): 100.00%
[5]; [9]
  selectivity ratio at 72 h: 665
[5]; [10]
  selectivity ratio at 72 h: 122
[6]
  CC50 at 48 h: 599 ± 62.1 µM
Hemagglutinin (HA)
  Inhibition of hemagglutination by the influenza virus: could not inhibit hemagglutination
